Measurements from article PMC10068823 (European Journal of Medicinal Chemistry, 2023).
pEC50: −log10 of the molar value.

Key:
HCoV 229E [1] = conditions: BEAS2B cell
HCoV 229E [2] = experiment: organism not typed; conditions: BEAS-2B, read-out: EC50 HCoV229E
SARS-CoV-2 3CL^pro [3] = target: T1, SARS-CoV-2 3CL^pro (Severe acute respiratory syndrome coronavirus 2, UniProt P0DTD1); format: biochemical
SARS-CoV-2 3CL^pro [4] = target: T1, SARS-CoV-2 3CL^pro; format: biochemical; remark: listed apart in the source

CC(C)C[C@H](NC(=O)[C@@H](NC(=O)OC(C)(C)C)C(C)C)C(=O)N[C@H](C=O)C[C@@H]1CCNC1=O [Compound 5, tert-Butyl ((S)-3-methyl-1-(((S)-4-methyl-1-oxo-1-(((S)-1-oxo-3-((S)-2-oxopyrrolidin-3-yl)propan-2-yl)amino)pentan-2-yl)amino)-1-oxobutan-2-yl)carbamate]
SI (CC50/EC50) MERS (MERS-CoV): 1.58 ± 0.91 (>63)
improvement in antiviral potency when co-dosed with CP-100356 (SARS-CoV-2): more than 3 fold
SI (CC50/EC50) HCoV229E (HCoV 229E [1]): > 30.1

CC(C)[C@H](NC(=O)OC(C)(C)C)C(=O)N1CCC[C@H]1C(=O)N[C@H](C=O)C[C@@H]1CCNC1=O [Compound 6, tert-Butyl ((S)-3-methyl-1-oxo-1-((S)-2-(((S)-1-oxo-3-((S)-2-oxopyrrolidin-3-yl)propan-2-yl)carbamoyl)pyrrolidin-1-yl)butan-2-yl)carbamate]
SI (CC50/EC50) MERS (MERS-CoV): 4.56 ± 1.39 (>22)
pEC50 (HCoV 229E [2]): < 4.75
SI (CC50/EC50) HCoV229E (HCoV 229E [1]): < 10

CO[C@H]1C[C@@H](C(=O)N[C@H](C=O)C[C@@H]2CCNC2=O)N(C(=O)[C@@H](NC(=O)OC(C)(C)C)C(C)C)C1 [Compound 8, tert-Butyl ((S)-1-((2S,4S)-4-methoxy-2-(((S)-1-oxo-3-((S)-2-oxopyrrolidin-3-yl)propan-2-yl)carbamoyl)pyrrolidin-1-yl)-3-methyl-1-oxobutan-2-yl)carbamate]
SI (CC50/EC50) MERS (MERS-CoV): 0.58 ± 0.34 (>172)
increase in potency on MERS respect to SARS-CoV-2 in the CPE cellular assay (MERS-CoV): 15 fold
pEC50 (HCoV 229E [2]): < 5.44
SI (CC50/EC50) HCoV229E (HCoV 229E [1]): < 10

CC(C)[C@H](NC(=O)OC(C)(C)C)C(=O)N1C[C@H](OC(C)(C)C)C[C@H]1C(=O)N[C@H](C=O)C[C@@H]1CCNC1=O [Compound 11, tert-Butyl ((S)-1-((2S,4R)-4-(tert-butoxy)-2-(((S)-1-oxo-3-((S)-2-oxopyrrolidin-3-yl)propan-2-yl)carbamoyl)pyrrolidin-1-yl)-3-methyl-1-oxobutan-2-yl)carbamate]
SI (CC50/EC50) MERS (MERS-CoV): 33.56 ± 6.8 (>3)
improvement in antiviral potency when co-dosed with CP-100356 (SARS-CoV-2): more than 3 fold
pEC50 (HCoV 229E [2]): < 4.32
SI (CC50/EC50) HCoV229E (HCoV 229E [1]): < 10

CC(C)[C@H](NC(=O)OC(C)(C)C)C(=O)N1C[C@@H]2CCC[C@@H]2[C@H]1C(=O)N[C@H](C=O)C[C@@H]1CCNC1=O [Compound 12, tert-Butyl ((S)-3-methyl-1-oxo-1-((1S,3aR,6aS)-1-(((S)-1-oxo-3-((S)-2-oxopyrrolidin-3-yl)propan-2-yl)carbamoyl)hexahydrocyclopenta[c]pyrrol-2(1H)-yl)butan-2-yl)carbamate]
cytotoxicity in Calu-3 cells (Calu-3 cells): without sign of cytotoxicity
lower activity against MERS compared to SARS-CoV-2 (MERS-CoV): 20 fold
mechanism of action from enzymatic progression curve (SARS-CoV-2 3CL^pro [3]): slow covalent binding inhibitor

CC(C)[C@H](NC(=O)OC(C)(C)C)C(=O)N1CCCC[C@H]1C(=O)N[C@H](C=O)C[C@@H]1CCNC1=O [Compound 13, tert-Butyl ((S)-3-methyl-1-oxo-1-((S)-2-(((S)-1-oxo-3-((S)-2-oxopyrrolidin-3-yl)propan-2-yl)carbamoyl)piperidin-1-yl)butan-2-yl)carbamate]
improvement in antiviral potency when co-dosed with CP-100356 (SARS-CoV-2): more than 3 fold

C[C@H](OC(C)(C)C)[C@H](NC(=O)OC(C)(C)C)C(=O)N1CCC[C@H]1C(=O)N[C@H](C=O)C[C@@H]1CCNC1=O [Compound 14, tert-Butyl ((2S,3S)-3-(tert-butoxy)-1-oxo-1-((S)-2-(((S)-1-oxo-3-((S)-2-oxopyrrolidin-3-yl)propan-2-yl)carbamoyl)pyrrolidin-1-yl)butan-2-yl)carbamate]
improvement in antiviral potency when co-dosed with CP-100356 (SARS-CoV-2): more than 3 fold

COC(=O)[C@H](C[C@@H]1CCNC1=O)NC(=O)[C@@H]1CCCN1C(=O)[C@@H](NC(=O)OC(C)(C)C)C(C)C [Compound 25g, Methyl (S)-2-((S)-1-((tert-butoxycarbonyl)-L-valyl)pyrrolidine-2-carboxamido)-3-((S)-2-oxopyrrolidin-3-yl)propanoate]
SARS-CoV-2 3CL^pro enzyme inhibition at fixed concentration (SARS-CoV-2 3CL^pro [4]): inactive

CC(C)[C@H](NC(=O)OC(C)(C)C)C(=O)N1CCC[C@H]1C(=O)N[C@@H](C[C@@H]1CCNC1=O)C(=O)O [Compound 26, (S)-2-((S)-1-((tert-butoxycarbonyl)-L-valyl)pyrrolidine-2-carboxamido)-3-((S)-2-oxopyrrolidin-3-yl)propanoic acid]
SARS-CoV-2 3CL^pro enzyme inhibition at fixed concentration (SARS-CoV-2 3CL^pro [4]): inactive

CC(C)[C@H](NC(=O)OC(C)(C)C)C(=O)N1CCC[C@H]1C(=O)N[C@H](CO)C[C@@H]1CCNC1=O [Compound 27g, tert-Butyl ((S)-1-((S)-2-(((S)-1-hydroxy-3-((S)-2-oxopyrrolidin-3-yl)propan-2-yl)carbamoyl)pyrrolidin-1-yl)-3-methyl-1-oxobutan-2-yl)carbamate]
SARS-CoV-2 3CL^pro enzyme inhibition at fixed concentration (SARS-CoV-2 3CL^pro [4]): inactive
